# “And” between values parts separate entries of the source, which are not always exact repeats. Identical values can stand only once. Like-named read-outs stand apart in the source and are kept apart here. Ends that are not written are not given here.
# Legend:
# hHgs 1-390 protein [1] = molecular target: T1, hHgs 1-390 protein (Homo sapiens, UniProt O14964); assay: biochemical
# hHgs 1-390 protein [2] = molecular target: T1, hHgs 1-390 protein
# MHV [3] = test system: MHV; parameters: species or system C57BL/6JGpt mice; details: in vivo
# M protein = assay: BFA treatment and washout: ER export of M protein in 17Cl-1 cells; type: cell-based; details: for Colocalization of M protein with ERGIC53 / Colocalization of M protein with SEC61B: individual replicate values, Figure S5A; for ERGIC53 (colocalization value, Figure S5B) / SEC61B (colocalization value, Figure S5B): individual replicates
# Description: 70–80% confluent 17Cl-1 cells were treated with 5 µg/mL final BFA (Catalog no #HY-
# 16592; MCE) for 40 min at 37°C. BFA was washed out by three brief rinses in PBS and
# cells were then incubated at 37°C for 5 h before fixation with 4% PFA.
# MHV [4] = type: cell-based, mouse hepatitis virus (MHV); details: RTB 0 uM
# SARS-CoV-2 Omicron BA.5 = type: in vivo, K18-hACE2 C57BL/6 mice
# MHV [5] = test system: MHV
# in vitro [6] = details: Vero E6 cells, cell viability, Figure S7F
# in vitro [7] = details: mouse, 17Cl-1 cells, cell viability, Figure S7E
# in vitro [8] = details: human, Calu-3 cells, cell viability, Figure S7G
# T1 sequence (O14964 1-390): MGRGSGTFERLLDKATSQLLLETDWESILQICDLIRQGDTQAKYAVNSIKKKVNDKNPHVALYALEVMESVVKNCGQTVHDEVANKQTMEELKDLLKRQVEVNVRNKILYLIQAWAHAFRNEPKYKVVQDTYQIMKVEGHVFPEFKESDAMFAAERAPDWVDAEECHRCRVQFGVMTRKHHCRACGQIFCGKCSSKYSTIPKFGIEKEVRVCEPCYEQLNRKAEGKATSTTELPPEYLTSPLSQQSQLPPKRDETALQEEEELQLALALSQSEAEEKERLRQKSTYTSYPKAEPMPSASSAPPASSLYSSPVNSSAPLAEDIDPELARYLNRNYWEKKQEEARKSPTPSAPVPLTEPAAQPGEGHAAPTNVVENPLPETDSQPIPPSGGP
compound,measurement,setting,value
COc1ccc(N)cn1 [5-amino-2-methoxypyridine],IC50,hHgs 1-390 protein [1],3.41 µM
same,Polarization,hHgs 1-390 protein [2]; 0.00610352 uM,137
same,Polarization,hHgs 1-390 protein [2]; 0.0244141 uM,154 and 132
same,Polarization,hHgs 1-390 protein [2]; 0.0976562 uM,127 and 143
same,Polarization,hHgs 1-390 protein [2]; 0.390625 uM,133 and 129
same,Polarization,hHgs 1-390 protein [2]; 1.5625 uM,103 and 111
same,Polarization,hHgs 1-390 protein [2]; 6.25 uM,88 and 79
same,Polarization,hHgs 1-390 protein [2]; 25 uM,61
same,Polarization,hHgs 1-390 protein [2]; 100 uM,51 and 48
"GAIRLHGRLIVAGIVLESEQPPRRRQRRKKRG (also: D-retroinverso) [M161-DRI, M161 modified with d-retroinverso (DRI) isoform]","readout per mouse, Figure S8P (quantity not given)",MHV [3],70 and 160 and 190 and 40 and 290 and 100
same,"score per mouse, Figure S8Q",MHV [3],1 and 0
same,lung injury (histology),"MHV [3]; mouse, iv, 15 mg/kg",alleviated
same,viral gRNA in the lung,"MHV [3]; mouse, iv, 15 mg/kg",significantly decreased
same,virus titer in the lung (plaque assay),"MHV [3]; mouse, iv, 15 mg/kg",significantly decreased
"C[C@H]1CCC/C=C/[C@@H]2C[C@H](O)C[C@H]2[C@H](O)/C=C/C(=O)O1 [BFA, Brefeldin A]",Colocalization of M protein with ERGIC53,M protein; 5h BFA washout,0.876 and 0.833 and 0.817
same,Colocalization of M protein with SEC61B,M protein; 5h BFA washout,0.423 and 0.481 and 0.508
same,"ERGIC53 (colocalization value, Figure S5B)",M protein; 5h BFA washout,0.399 and 0.424 and 0.407
same,"SEC61B (colocalization value, Figure S5B)",M protein; 5h BFA washout,0.895 and 0.946 and 0.906
same,Colocalization of M protein with ERGIC53,M protein; BFA treatment,0.305 and 0.466 and 0.315
same,Colocalization of M protein with SEC61B,M protein; BFA treatment,0.951 and 0.905 and 0.916
same,"ERGIC53 (colocalization value, Figure S5B)",M protein; BFA treatment,0.418 and 0.389 and 0.288
same,"SEC61B (colocalization value, Figure S5B)",M protein; BFA treatment,0.951 and 0.926 and 0.886
same,ER export of M protein,"M protein; WT 17Cl-1 cells, 5 µg/mL BFA, 40 min",effectively blocked
CC(C)C(=O)OC[C@H]1O[C@@H](n2ccc(NO)nc2=O)[C@H](O)[C@@H]1O [Molnupiravir],"Inhibition, combination matrix (Figure S12C)",MHV [4]; Molnupiravir 0.01 uM,-6.464
same,"Inhibition, combination matrix (Figure S12C)",MHV [4]; Molnupiravir 0.03 uM,-1.441
same,"Inhibition, combination matrix (Figure S12C)",MHV [4]; Molnupiravir 0.1 uM,-1.4813
same,"Inhibition, combination matrix (Figure S12C)",MHV [4]; Molnupiravir 0.3 uM,3.455
same,"Inhibition, combination matrix (Figure S12C)",MHV [4]; Molnupiravir 1 uM,0.7848
same,"Inhibition, combination matrix (Figure S12C)",MHV [4]; Molnupiravir 3 uM,9.711
same,"Inhibition, combination matrix (Figure S12C)",MHV [4]; Molnupiravir 10 uM,41.7804
same,"Inhibition, combination matrix (Figure S12C)",MHV [4]; Molnupiravir 25 uM,66.457
same,Survival curves: per-mouse event code,"SARS-CoV-2 Omicron BA.5; mouse, in vivo",0
same,body weight relative to start (Figure 5N),"SARS-CoV-2 Omicron BA.5; mouse, in vivo",100
same,"pathological severity scores, lung tissues","SARS-CoV-2 Omicron BA.5; mouse, in vivo",2 and 1
same,body weight relative to start (Figure 5N),SARS-CoV-2 Omicron BA.5; time 3,98.8156 and 99.095 and 100.646 and 100.079 and 100.862 and 100.376 and 98.4711 and 101.287
same,body weight relative to start (Figure 5N),SARS-CoV-2 Omicron BA.5; time 5,100.79 and 100.302 and 100.727 and 102.248 and 100.911 and 101.609 and 100.096 and 100.919
same,body weight relative to start (Figure 5N),SARS-CoV-2 Omicron BA.5; time 8,102.338 and 103.472 and 103.062 and 103.016 and 101.448 and 100.239 and 100.322
same,body weight relative to start (Figure 5N),SARS-CoV-2 Omicron BA.5; time 10,102.338 and 103.472 and 103.062 and 103.016 and 101.448 and 100.239 and 100.322
COc1ccc(N)cn1 [5-amino-2 methoxypyridine],"cell viability, Figures S9A, B, D-F",17Cl-1 cells; concentration 0.01,100
same,"cell viability, Figures S9A, B, D-F",17Cl-1 cells; concentration 0.03,100
same,"cell viability, Figures S9A, B, D-F",17Cl-1 cells; concentration 0.1,100
same,"cell viability, Figures S9A, B, D-F",17Cl-1 cells; concentration 0.3,100
same,"cell viability, Figures S9A, B, D-F",17Cl-1 cells; concentration 1,100
same,"cell viability, Figures S9A, B, D-F",17Cl-1 cells; concentration 3,100
same,"cell viability, Figures S9A, B, D-F",17Cl-1 cells; concentration 10,100
same,"cell viability, Figures S9A, B, D-F",17Cl-1 cells; concentration 25,103.896
same,"viability of infected cells (rescue of cytopathic effect), Figures S9G-L",MHV [5]; concentration 10,50.187 and 47.1573 and 49.7662
same,"viability of infected cells (rescue of cytopathic effect), Figures S9G-L",MHV [5]; concentration 30,52.4593 and 51.6738 and 47.1012
same,"viability of infected cells (rescue of cytopathic effect), Figures S9G-L",MHV [5]; concentration 100,53.2448 and 47.1573 and 49.2052
same,"viability of infected cells (rescue of cytopathic effect), Figures S9G-L",MHV [5]; concentration 300,49.4576 and 49.4296 and 47.5781
same,"viability of infected cells (rescue of cytopathic effect), Figures S9G-L",MHV [5]; concentration 1000,50.0187 and 48.055 and 47.0451
same,"viability of infected cells (rescue of cytopathic effect), Figures S9G-L",MHV [5]; concentration 3000,52.3191 and 51.9824 and 49.121
same,"viability of infected cells (rescue of cytopathic effect), Figures S9G-L",MHV [5]; concentration 10000,58.7432 and 53.4412 and 53.7217
same,"viability of infected cells (rescue of cytopathic effect), Figures S9G-L",MHV [5]; concentration 25000,59.3884 and 60.7069 and 59.0799
CC(C)(C)[C@H](NC(=O)C(F)(F)F)C(=O)N1C[C@H]2[C@@H]([C@H]1C(=O)N[C@H](C#N)C[C@@H]1CCNC1=O)C2(C)C [nirmatrelvir],"Inhibition, combination matrix (Figure S12D)",MHV [4]; nirmatrelvir 0.01 uM,-1.274
same,"Inhibition, combination matrix (Figure S12D)",MHV [4]; nirmatrelvir 0.03 uM,3.148
same,"Inhibition, combination matrix (Figure S12D)",MHV [4]; nirmatrelvir 0.1 uM,7.328
same,"Inhibition, combination matrix (Figure S12D)",MHV [4]; nirmatrelvir 0.3 uM,49.1912
same,"Inhibition, combination matrix (Figure S12D)",MHV [4]; nirmatrelvir 1 uM,73.8207
same,"Inhibition, combination matrix (Figure S12D)",MHV [4]; nirmatrelvir 3 uM,76.6195
same,"Inhibition, combination matrix (Figure S12D)",MHV [4]; nirmatrelvir 10 uM,79.1661
same,"Inhibition, combination matrix (Figure S12D)",MHV [4]; nirmatrelvir 25 uM,76.9584
GRKKRRQRRRPPQDYKDDDDK [FLAG],"cell viability, Figure S7G",Calu-3 cells; peptide concentration 1000,98.6281 and 97.5158
same,"cell viability, Figure S7G",Calu-3 cells; peptide concentration 5000,94.1787 and 96.4034
same,"cell viability, Figure S7G",Calu-3 cells; peptide concentration 10000,96.4034 and 97.8865
same,"cell viability, Figure S7G",Calu-3 cells; peptide concentration 20000,94.9203 and 96.4034
same,"cell viability, Figure S7G",Calu-3 cells; peptide concentration 40000,95.6618 and 97.5158
same,"cell viability, Figure S7G",Calu-3 cells; peptide concentration 60000,97.5158 and 96.0326
same,"cell viability, Figure S7G",Calu-3 cells; peptide concentration 80000,96.4034
same,"cell viability, Figure S7G",Calu-3 cells; peptide concentration 100000,97.8865
same,"cell viability, Figure S7G",Calu-3 cells; peptide concentration 400000,98.6281 and 97.5158
same,"cell viability, Figure S7G",Calu-3 cells; peptide concentration 800000,99.7405 and 96.0326
same,viability at 24 h,in vitro [6]; peptide concentration 1000,94.8%
same,viability at 24 h,in vitro [6]; peptide concentration 2000,101%
same,viability at 24 h,in vitro [6]; peptide concentration 4000,102%
same,viability at 24 h,in vitro [6]; peptide concentration 6000,106%
same,viability at 24 h,in vitro [6]; peptide concentration 8000,102%
same,viability at 24 h,in vitro [6]; peptide concentration 10000,105%
same,viability at 24 h,in vitro [6]; peptide concentration 50000,102%
same,viability at 24 h,in vitro [6]; peptide concentration 100000,105%
same,viability at 24 h,in vitro [6]; peptide concentration 400000,95.8%
same,viability at 24 h,in vitro [6]; peptide concentration 800000,101%
same,"cell viability, Figure S7E",17Cl-1 cells; peptide concentration 1000,98.8246 and 101.437
same,"cell viability, Figure S7E",17Cl-1 cells; peptide concentration 4000,100.566 and 104.919
same,"cell viability, Figure S7E",17Cl-1 cells; peptide concentration 8000,94.9064
same,"cell viability, Figure S7E",17Cl-1 cells; peptide concentration 10000,94.471 and 89.2468
same,"cell viability, Figure S7E",17Cl-1 cells; peptide concentration 20000,89.6822
same,"cell viability, Figure S7E",17Cl-1 cells; peptide concentration 40000,87.0701 and 87.9408
same,"cell viability, Figure S7E",17Cl-1 cells; peptide concentration 60000,91.4236 and 94.9064
same,"cell viability, Figure S7E",17Cl-1 cells; peptide concentration 80000,90.9882 and 92.2943
same,"cell viability, Figure S7E",17Cl-1 cells; peptide concentration 100000,101.001 and 93.6003
same,"cell viability, Figure S7E",17Cl-1 cells; peptide concentration 200000,85.764
same,"cell viability, Figure S7F",Vero E6 cells; peptide concentration 1000,96.8531 and 94.4056
same,"cell viability, Figure S7F",Vero E6 cells; peptide concentration 2000,104.196 and 103.846
same,"cell viability, Figure S7F",Vero E6 cells; peptide concentration 4000,104.895
same,"cell viability, Figure S7F",Vero E6 cells; peptide concentration 6000,106.643 and 105.594
same,"cell viability, Figure S7F",Vero E6 cells; peptide concentration 8000,101.049 and 100.35
same,"cell viability, Figure S7F",Vero E6 cells; peptide concentration 10000,105.594
same,"cell viability, Figure S7F",Vero E6 cells; peptide concentration 50000,101.049 and 103.497
same,"cell viability, Figure S7F",Vero E6 cells; peptide concentration 400000,94.0559 and 93.7063
same,"cell viability, Figure S7F",Vero E6 cells; peptide concentration 800000,102.448
same,viability at 24 h,in vitro [7]; peptide concentration 1000,99.7%
same,viability at 24 h,in vitro [7]; peptide concentration 4000,102%
same,viability at 24 h,in vitro [7]; peptide concentration 8000,98%
same,viability at 24 h,in vitro [7]; peptide concentration 10000,97.5%
same,viability at 24 h,in vitro [7]; peptide concentration 20000,94%
same,viability at 24 h,in vitro [7]; peptide concentration 40000,78.8%
same,viability at 24 h,in vitro [7]; peptide concentration 60000,98.4%
same,viability at 24 h,in vitro [7]; peptide concentration 80000,84.5%
same,viability at 24 h,in vitro [7]; peptide concentration 100000,88.8%
same,viability at 24 h,in vitro [7]; peptide concentration 200000,84.9%
same,viability at 24 h,in vitro [8]; peptide concentration 1000,92%
same,viability at 24 h,in vitro [8]; peptide concentration 5000,88.6%
same,viability at 24 h,in vitro [8]; peptide concentration 10000,92%
same,viability at 24 h,in vitro [8]; peptide concentration 20000,89%
same,viability at 24 h,in vitro [8]; peptide concentration 40000,93.4%
same,viability at 24 h,in vitro [8]; peptide concentration 60000,90.5%
same,viability at 24 h,in vitro [8]; peptide concentration 80000,94.5%
same,viability at 24 h,in vitro [8]; peptide concentration 100000,94.2%
same,viability at 24 h,in vitro [8]; peptide concentration 400000,100%
same,viability at 24 h,in vitro [8]; peptide concentration 800000,96.8%

# From article PMC12948427 (The Journal of Clinical Investigation, 2025)
